Here are results for 41 compounds from BindingDB's records for patent WO2022093820 (GENENTECH, INC., 2022).

Chain of Phosphatidylinositol 3-kinase catalytic subunit type 3 (Q8NEB9 whole entry): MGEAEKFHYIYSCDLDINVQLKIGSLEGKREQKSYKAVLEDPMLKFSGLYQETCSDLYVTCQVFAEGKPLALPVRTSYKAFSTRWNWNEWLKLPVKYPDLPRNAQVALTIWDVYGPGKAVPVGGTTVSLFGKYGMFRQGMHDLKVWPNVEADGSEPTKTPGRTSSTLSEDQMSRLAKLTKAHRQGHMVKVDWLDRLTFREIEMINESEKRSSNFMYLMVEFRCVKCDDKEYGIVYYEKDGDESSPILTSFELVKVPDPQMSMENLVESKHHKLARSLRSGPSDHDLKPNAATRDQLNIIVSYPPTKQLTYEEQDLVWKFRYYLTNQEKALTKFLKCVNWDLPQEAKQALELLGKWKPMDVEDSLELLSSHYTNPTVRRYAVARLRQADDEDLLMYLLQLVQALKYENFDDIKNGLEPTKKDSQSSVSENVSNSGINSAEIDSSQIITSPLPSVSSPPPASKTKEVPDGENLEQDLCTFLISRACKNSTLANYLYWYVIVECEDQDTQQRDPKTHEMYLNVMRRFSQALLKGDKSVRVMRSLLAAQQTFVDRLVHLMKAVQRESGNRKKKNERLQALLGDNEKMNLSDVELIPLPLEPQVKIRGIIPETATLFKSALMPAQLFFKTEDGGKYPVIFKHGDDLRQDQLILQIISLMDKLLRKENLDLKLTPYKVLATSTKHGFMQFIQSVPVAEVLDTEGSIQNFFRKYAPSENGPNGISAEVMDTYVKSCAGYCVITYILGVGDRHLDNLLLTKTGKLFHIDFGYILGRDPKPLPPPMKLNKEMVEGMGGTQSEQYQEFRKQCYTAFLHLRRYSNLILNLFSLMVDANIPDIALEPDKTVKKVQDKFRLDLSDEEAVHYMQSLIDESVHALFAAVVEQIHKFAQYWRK

In this assay the target is Phosphatidylinositol 3-kinase catalytic subunit type 3 (Homo sapiens, UniProt Q8NEB9). In words: VPS34 ADP-Glo kinase assay. As for the experimental part:
Experimental compound in DMSO was dispensed to a 384-well microplate via acoustic dispenser at 50 nl per well. […] Assay buffer conditions were as follows: 50 mM HEPES, pH 7.5, 3 mM MnCl2, 0.01% BSA, 0.01% Brij 35, 1 mM TCEP. The 5 µl reaction was incubated for 90 minutes at room temperature, and then quenched with equal volume of ADP-Glo Reagent (5 µl; Promega). Quenched reaction was incubated for 60 min, followed by addition of an equal volume of Kinase Detection Reagent (10 µl; Promega). Luminescence signal was detected on an Envision (Perkin Elmer).
On the technique in general: In ADP-Glo the light output rises with the ADP produced.
The IC50 is the midpoint of a concentration-inhibition curve. A low value points to greater potency. `C[C@@H]1COCCN1c1cc2n(n1)[C@@H](CC(F)(F)F)CNC2=O` [WO2022093820, Compound 60]: the 50% inhibitory concentration (IC50) is 429 nM.
The compound `C[C@H](CO)C1CNC(=O)c2cc(N3CCOC[C@H]3C)nn21` (stereo partly specified) [WO2022093820, Compound 70] gave an IC50 of 532 nM.
`C[C@@H]1COCCN1c1cc2n(n1)[C@@H](C1(C)CC1)CNC2=O` [WO2022093820, Compound 12] showed a half-maximal inhibitory concentration (IC50) of 3350 nM.
As for `C[C@H](CO)[C@@H]1CNC(=O)c2cc(N3CCOC[C@H]3C)nn21` [WO2022093820, Compound 67], it took 32400 nM to reach half-maximal inhibition (IC50). Against the preceding compound, the IC50 is about 9.7-fold higher.
As to `CC(C)[C@@]1(C)CNC(=O)c2cc(N3CCOC[C@H]3C)nn21` [WO2022093820, Compound 26], it took 2170 nM to reach half-maximal inhibition (IC50).
For `C[C@@H]1COCCN1c1cc2n(n1)C[C@H](CC(F)(F)F)NC2=O` [WO2022093820, Compound 51] the value was 682 nM.
The same measure for `C[C@H](c1ccccc1)[C@@H]1CNC(=O)c2cc(N3CCOC[C@H]3C)nn21` [WO2022093820, Compound 57]: 50000 nM; for `C[C@@H]1COCCN1c1cc2n(n1)[C@H](C(F)(F)C(F)(F)F)CNC2=O` [WO2022093820, Compound 15]: 52 nM; for `C[C@@H]1COCCN1c1cc2n(n1)C[C@@H](CC(F)(F)F)NC2=O` [WO2022093820, Compound 52]: 24700 nM.
`C[C@@H]1COCCN1c1cc2n(n1)C(C)(C)CNC2=O` [WO2022093820, Compound 71] came in with an IC50 of 919 nM.
As to `C[C@@H]1COCCN1c1cc2n(n1)[C@H]([C@@H](C)CO)CNC2=O` [WO2022093820, Compound 68], half-maximal inhibition (IC50) was put at 27300 nM. This IC50 is about 30-fold higher than that of the compound before.
As for `CC[C@@]1(C2CC2)CNC(=O)c2cc(N3CCOC[C@H]3C)nn21` [WO2022093820, Compound 27], the IC50 was found to be 32 nM.
For `C[C@@H]1COCCN1c1cc2n(n1)[C@@](C)(C1CCC1)CNC2=O` [WO2022093820, Compound 45] the value was 260 nM; for `C[C@@H]1COCCN1c1cc2n(n1)[C@@](C)(C1CC1)CNC2=O` [WO2022093820, Compound 24], 1340 nM; for `CC[C@@H](C)C[C@H]1CNC(=O)c2cc(N3CCOC[C@H]3C)nn21` [WO2022093820, Compound 64], 33600 nM.
In turn, `C[C@@H]1COCCN1c1cc2n(n1)[C@H](C1(C)CC1)CNC2=O` [WO2022093820, Compound 11] yielded a half-inhibitory concentration (IC50) of 56 nM.
Compound `C[C@@H]1COCCN1c1cc2n(n1)[C@H](C1(c3ccccc3)CC1)CNC2=O` [WO2022093820, Compound 48] came in with an IC50 of 100 nM.
On to `C[C@@H]1COCCN1c1cc2n(n1)[C@@H](C(F)(F)C(F)(F)F)CNC2=O` [WO2022093820, Compound 16], for which 50000 nM corresponded to half-maximal inhibition (IC50). This IC50 lies about 500-fold higher than the previous one.
For `C[C@@H]1COCCN1c1cc2n(n1)[C@](C)(C1CC1)CNC2=O` [WO2022093820, Compound 23] the value was 41 nM.
On to `CC(C)C[C@@H]1CNC(=O)c2cc(N3CCOC[C@H]3C)nn21` [WO2022093820, Compound 61], for which the concentration for half-maximal inhibition (IC50) came out at 12800 nM.
For `CC(C)[C@@H]1n2nc(N3CCOC[C@H]3C)cc2C(=O)NC12CC2` [WO2022093820, Compound 34] the value was 21000 nM; for `CC[C@]1(C2CC2)CNC(=O)c2cc(N3CCOC[C@H]3C)nn21` [WO2022093820, Compound 28], 1300 nM; for `CC(C)[C@]1(C)CNC(=O)c2cc(N3CCOC[C@H]3C)nn21` [WO2022093820, Compound 25], 90 nM.
In the case of `COC[C@]1(C(C)C)CNC(=O)c2cc(N3CCOC[C@H]3C)nn21` [WO2022093820, Compound 54], 563 nM corresponded to half-maximal inhibition (IC50).
As for `CC(C)C1(CO)CNC(=O)c2cc(N3CCOC[C@H]3C)nn21` (stereo partly specified) [WO2022093820, Compound 50], the IC50 came out at 847 nM.
For `C[C@@H]1COCCN1c1cc2n(n1)[C@H](CC(F)(F)F)CNC2=O` [WO2022093820, Compound 59] the value was 36000 nM.
The same measure for `C[C@@H]1COCCN1c1cc2n(n1)[C@](C)(C1CCC1)CNC2=O` [WO2022093820, Compound 44]: 4000 nM.
The same measure for `C[C@H](c1ccccc1)C1CNC(=O)c2cc(N3CCOC[C@H]3C)nn21` (stereo partly specified) [WO2022093820, Compound 55]: 50000 nM; for `CC[C@@H]1CNC(=O)c2cc(N3CCOC[C@H]3C)nn21` [WO2022093820, Compound 46]: 12800 nM.
In turn, `C[C@@H]1COCCN1c1cc2n(n1)[C@](C)(C1CC1)C1(CC1)NC2=O` [WO2022093820, Compound 29] showed a half-inhibitory concentration (IC50) of 27 nM. This IC50 is about 470-fold lower than that of the compound before.
The same measure for `C[C@@H]1COCCN1c1cc2n(n1)[C@@H](C1(c3ccccc3)CC1)CNC2=O` [WO2022093820, Compound 49]: 35000 nM.
`C[C@@H]1COCCN1c1cc2n(n1)[C@@](C)(C1CC1)C1(CC1)NC2=O` [WO2022093820, Compound 30] returned a half-maximal inhibitory concentration (IC50) of 1750 nM.
`CC(C)[C@H]1n2nc(N3CCOC[C@H]3C)cc2C(=O)NC12CC2` [WO2022093820, Compound 33] showed an IC50 of 24 nM.
For `CC[C@H](C)C[C@@H]1CNC(=O)c2cc(N3CCOC[C@H]3C)nn21` [WO2022093820, Compound 65] the value was 109 nM; for `C[C@@H]1COCCN1c1cc2n(n1)[C@@H]1CCC(C)(C)[C@@H]1NC2=O` [WO2022093820, Compound 41], 51 nM.
Turning to `COC[C@@]1(C(C)C)CNC(=O)c2cc(N3CCOC[C@H]3C)nn21` [WO2022093820, Compound 53], inhibition was half-maximal at 36200 nM (IC50).
The same measure for `C[C@@H]1COCCN1c1cc2n(n1)C([C@@H](C)c1ccccc1)CNC2=O` (stereo partly specified) [WO2022093820, Compound 56]: 119 nM.
In turn, `C[C@@H]1COCCN1c1cc2n(n1)C([C@@H](C)CO)CNC2=O` (stereo partly specified) [WO2022093820, Compound 69] had an IC50 of 784 nM.
For `CC(C)C[C@H]1CNC(=O)c2cc(N3CCOC[C@H]3C)nn21` [WO2022093820, Compound 62] the value was 739 nM; for `CC[C@H]1CNC(=O)c2cc(N3CCOC[C@H]3C)nn21` [WO2022093820, Compound 47], 747 nM; for `C[C@@H]1COCCN1c1cc2n(n1)[C@H]([C@@H](C)c1ccccc1)CNC2=O` [WO2022093820, Compound 58], 388 nM.
